≈ marks a conversion by molar mass, not a printed value. Like-named read-outs stand apart in the source and are kept apart here. Each block holds one compound with its values, some of them ahead of it.
Legend:
Pf NF54 = conditions: ref Beteck et al., cited from earlier work
[1] = set-up: method as in Wang et al., 2014; conditions: dosed as a micro-suspension in mice; ref Wang et al., 2014; cited from earlier work
[2] = pH range of 4–9; ref EFSA 2003; cited from earlier work
[3] = system: multidrug resistant Pf K1; set-up: method as in Beteck et al., 2018; conditions: ref Beteck et al., 2018; read-out: IC50 against multidrug resistant Pf K1; cited from earlier work
[4] = cited from earlier work
[5] = system: P. berghei sporozoite liver stages; conditions: abstract; no reference given; cited from earlier work
Plasma stability = format: in vitro ADME; conditions: human plasma
Procedure: Stock solutions of compounds in DMSO were used to spike pooled human plasma. Samples were transferred in duplicate to 6 different wells of a 96-deep well plate. An aliquot of each sample was immediately quenched with ice cold acetonitrile containing the internal standard carbamazepine (0.1 μM), after which the plate was incubated in a water bath (37°C for 1 h). Aliquots of samples were removed at 5, 15, 40, 60, and 180 min and quenched with ice cold acetonitrile. After samples of the final time point were precipitated, the supernatant was transferred to a round bottom 96-well plate for analysis by LC-MS/MS using a reverse phase Gemini NX-C18 column (5 μM, 2.1 mm × 50 mm) with a Shimadzu HPLC coupled with an AB Sciex 3200 Q TRAP MS). The peak area ratios were used to calculate the amount of parent compound remaining and t1/2 in plasma, using the following equations.
% Parent remaining % Parent= Normalised peak area of sample at timepoint/Normalised peak area of sample at t=0 x 100
Predicted t1/2 t1/2= −0.693/λ Where λ is the slope of the Ln % parent remaining vs. time curve.

[6] = Metabolic stability in human liver microsomes; format: in vitro ADME
Procedure: (§1) A 5-point metabolic stability assay in human and mouse liver microsomes were performed in duplicate in 96-well plates. Stock solution of RMB005, −059 and 060 prepared in DMSO were individually incubated at 37°C in mouse and pooled human liver microsomes (0.4 mg/mL). An aliquot was removed at 0 min and quenched with ice cold acetonitrile containing the internal standard carbamazepine (0.1 μM). The cofactor NADPH was added, and the reactions were subsequently stopped at time points 5, 10, 30, and 60 min by removal of an aliquot and quenching with ice cold acetonitrile containing the internal standard. The supernatant of all samples were analysed via LC-MS/MS analysis (reverse phase Gemini NX-C18 column and Shimadzu HPLC and AB Sciex 3200 Q TRAP MS). Calculation of in vitro t1/2, intrinsic clearance rate (CLint) and predicted in vivo clearance (CLH) was carried out using the following equations ([Obach 1999]). CLintClint= 0.693/t1/2(min) ×Volume of incubation (μL)/microsomal protein (μg) Where t1/2 is calculated in minutes.
(§2) Predicted in vivo CLH CLH=Q × fu(plasma)×CLint/fu(mic)/Q+ fu(plasma)× CLint/fu(mic) Where Q is the hepatic blood flow of mouse (90 mL/min/kg) or human (20.7 mL/min/kg). Fu(plasma) is the unbound drug fraction in the plasma and fu(mic) is the unbound fraction in the microsomes.
(§3) The equation below was used in the case of RMB059 and -060, where protein-binding data were not available. CLH=Q × CLint/Q+ CLint

Toxoplasma gondii (Tg) = system: Toxoplasma gondii (Tg); set-up: method as in Beteck et al., 2018; conditions: in vitro; ref Beteck et al., 2018; read-out: IC50 against Toxoplasma gondii; cited from earlier work
[7] = system: multidrug resistant Pf W2; set-up: method as in Beteck et al., 2018; conditions: ref Beteck et al., 2018; read-out: Activity against multidrug resistant Pf W2; cited from earlier work
[8] = Lipophilicity, 1-octanol/phosphate buffer pH 7.4 (LogD7.4); format: physicochemical
Procedure: Stock solutions ([…]) of compounds were diluted to 100 μM in 96-well deep-well plate containing 1-octanol and phosphate buffer at pH 7.4. The plate was agitated on an orbital shaker at 750 rpm for 2 h. The organic and buffer layers of each well were transferred separately to a new analysis plate. The samples were analysed with the HPLC-diode array detection as described for kinetic solubility. Samples from both layers were analysed to determine LogD7.4 values.

[9] = Passive permeability, parallel artificial membrane permeation assay (PAMPA); format: in vitro ADME; conditions: donor pH 6.5, acceptor pH 7.4, 4 h, read-out: Permeability (LogPapp) (converted)
Procedure: A parallel artificial membrane permeation assay (PAMPA) was used to assess the passive permeability of compounds with a 96-well MultiScreen filter plate ([…] pore size, Millipore). The filter plate was precoated with 5% hexadecane in hexane. Stock solutions of compounds were diluted to 1 mM in a donor buffer (pH 6.5). Lucifer yellow was added to the apical wells of the precoated MultiScreen plate containing compound donor solution. The donor buffer solutions were spiked with each test compound (1 mM). The acceptor-buffer solution was prepared by adding 10 μL DMSO to 990 μL acceptor buffer (pH 7.4) and 250 μL were added to the basolateral (acceptor) wells. The donor plate was carefully inserted into the acceptor plate and incubated at room temperature for 4 h. After the incubation period, 50 μL of samples from the acceptor plate were transferred to a round bottom 96-well plate, together with 30 μL of donor buffer for matrix matching. Theoretical equilibrium samples for each test compound were prepared by adding 150 μL of donor solutions to 250 μL acceptor solutions and left at room temperature. These theoretical equilibrium samples represent complete transfer of the compound into the donor well. For the theoretical equilibrium samples, 80 μL were added to the analysis plate. Lastly, 160 μL of the internal standard carbamazepine (0.1 μM) was added to all acceptor and equilibrium samples. A portion of the sample containing Lucifer yellow was analyzed on a BioRad iMark^TM Microplate Absorbance Reader (BioRad, Hercules, CA, United States; excitation 490 nm, emission 510–570 nm) to determine that P app was within the acceptable range (<50 nm/s). Samples were analysed using reverse phase Gemini NX-C18 column (5 μM, 2.1 mm × 50 mm) with a Shimadzu HPLC coupled with an AB Sciex 3200 Q TRAP MS). The Papp for each compound was determined using. C=VD × VA/(VD+VA) ×A×t where VA = volume of donor compartment (0.15 cm^3), VD = volume of acceptor compartment (0.25 cm^3), A = accessible filter area (0.24 cm^2) and t = incubation time (14,400 s). […]

[10] = Metabolic stability in mouse liver microsomes; format: in vitro ADME
Procedure: as §1, §2, §3

Neospora caninum = system: Neospora caninum; set-up: method as in Beteck et al., 2018; conditions: in vitro; ref Beteck et al., 2018; read-out: IC50 against Neospora caninum; cited from earlier work
[11] = cited from earlier work; remark: listed apart in the source
[12] = set-up: method as in Tanner et al., 2019; conditions: ref Tanner et al., 2019; cited from earlier work
[13] = 2018, read-out: IC50 against Pf NF54
[14] = *protein binding data not included

SMILES: CCCCCCCCCCOc1cc2c(O)c(C(=O)OCC)cnc2cc1OCC [DQ, decoquinate]
IC50 (Pf NF54; Pf NF54, 2018, read-out: NF54 IC50 (line in the PK figures, in vitro IC50 in the discussion)): 26 nM
IC50 (Pf NF54; 2016, read-out: In vitro activity against chloroquine-sensitive NF54 asexual parasites): 26.6 nM
IC50 (Pf NF54; [13]): 26.6 nM
Relative BA [1]: 6%
Solubility in buffered aqueous solutions [2]: 0.024 µM (≈ 0.01 µg/mL)
Solubility in buffered water [2]: 0.01 µg/mL (≈ 0.0239 µM)
IC50 [3]: 64.9 nM
Octanol/water partition coefficient (Log Kow or LogP) ([4]; 25°C, pH 5, 7, or 9, ref Bampidis et al., 2019): ≥ 5.7
LogD ([4]; ref Burger et al., 2018): 7.8

Plasma stability (in words) (Plasma stability): high degree of lability
half-life (Plasma stability; pooled plasma, 37°C): < 8 min
Estimated in vivo CLH HLM [6, 14]: 18.6* mL/min/kg
CLint scaled ([6]; human, pooled liver microsomes, calculated from t1/2 in HLM, read-out: In vitro CLint HLM): 183 mL/min/kg
half-life ([6]; pooled liver microsomes, human liver microsomes, NADPH, read-out: Degradation half-life HLM): 13.1 min
logD at 2 h [8]: 2.9
Papp at 4 h, 1 mM [9]: 0.501 ×10⁻⁶ cm/s
Estimated in vivo CLH MLM [10, 14]: 77.2* mL/min/kg
half-life ([10]; mouse liver microsomes, NADPH, read-out: Degradation half-life MLM): 14.5 min
CLint scaled ([10]; mouse, liver microsomes, calculated from t1/2 in MLM, read-out: In vitro CLint MLM): 541 mL/min/kg
SMILES: CCCCCCCCCCOc1cc2c(OC(=O)N3CCN(S(C)(=O)=O)C3=O)c(C(=O)OCC)cnc2cc1OCC [RMB060]
Activities against P. berghei sporozoite liver stages (in words) [5]: sub-nanomolar
IC50 (Pf NF54; [13]): 1.4 nM
IC50 [3]: 1.3 nM
IC50 (Toxoplasma gondii (Tg)): 1.1 nM
IC50 [7]: 1.1 nM
IC50 (Neospora caninum): 0.6 nM

SMILES: CCCCCCCCCCOc1cc2c(=O)c(C(=O)NCCOCCO)cn(CCO)c2cc1OCC [RMB073]
Plasma half-life [11]: greater than 6 h
Predicted kinetic solubility at pH 7.4 [12]: > 150 µM

From article PMC9450014, “The evaluation of ADME and pharmacokinetic properties of decoquinate derivatives for the treatment of malaria” (Frontiers in Pharmacology, 2022)
